Data: ChEMBL document CHEMBL4308841, “Synthesis, in vitro antiproliferative activity, and kinase inhibitory effects of pyrazole-containing diarylureas and diarylamides” (Eur J Med Chem, 2018)

Each compound was assayed on Malme-3M (assay: Growth inhibition of human MALME-3M cells assessed as cell growth at 10 uM incubated for 48 hrs by sulforhodamine B assay relative to control). Details: read-out: Activity.
Format: functional
O=C(Nc1cccc(-n2cc(-c3ccncc3)c(-c3cc(O)cc(Cl)c3)n2)c1)c1ccc(N2CCOCC2)c(C(F)(F)F)c1 gave a growth at 10 µM of -26.9%.

Each compound was assayed on PC-3 (assay: Growth inhibition of human PC3 cells assessed as cell growth at 10 uM incubated for 48 hrs by sulforhodamine B assay relative to control). Details: PC-3, 48 h, read-out: Activity.
Format: functional
For O=C(Nc1cccc(-n2cc(-c3ccncc3)c(-c3cc(O)cc(Cl)c3)n2)c1)c1ccc(N2CCOCC2)c(C(F)(F)F)c1, the growth at 10 µM was 19.1%.

These compounds were tested on Hs-578T (assay: Growth inhibition of human Hs578T cells assessed as cell growth at 10 uM incubated for 48 hrs by sulforhodamine B assay relative to control). Details: read-out: Activity.
Format: functional
Compound O=C(Nc1cccc(-n2cc(-c3ccncc3)c(-c3cc(O)cc(Cl)c3)n2)c1)c1ccc(N2CCOCC2)c(C(F)(F)F)c1 has a growth at 10 µM of 17.9%.

The compounds below were run on K562 (assay: Growth inhibition of human K562 cells assessed as cell growth at 10 uM incubated for 48 hrs by sulforhodamine B assay relative to control). Details: K562, 48 h, read-out: Activity.
Format: functional
Work on O=C(Nc1cccc(-n2cc(-c3ccncc3)c(-c3cc(O)cc(Cl)c3)n2)c1)c1ccc(N2CCOCC2)c(C(F)(F)F)c1 yielded a growth at 10 µM of -15.5%.

Each compound was assayed on SW-620 (assay: Growth inhibition of human SW620 cells assessed as cell growth at 10 uM incubated for 48 hrs by sulforhodamine B assay relative to control). Details: SW-620, 48 h, read-out: Activity.
Format: functional
O=C(Nc1cccc(-n2cc(-c3ccncc3)c(-c3cc(O)cc(Cl)c3)n2)c1)c1ccc(N2CCOCC2)c(C(F)(F)F)c1 showed a growth at 10 µM of -26.2%.

Each compound was assayed on HL-60(TB) (assay: Growth inhibition of human HL-60(TB) cells assessed as cell growth at 10 uM incubated for 48 hrs by sulforhodamine B assay relative to control). Details: HL-60, 48 h, read-out: Activity.
Format: functional
O=C(Nc1cccc(-n2cc(-c3ccncc3)c(-c3cc(O)cc(Cl)c3)n2)c1)c1ccc(N2CCOCC2)c(C(F)(F)F)c1 gave a growth at 10 µM of -46.4%.

Each compound was assayed on SK-MEL-5 (assay: Growth inhibition of human SK-MEL-5 cells assessed as cell growth at 10 uM incubated for 48 hrs by sulforhodamine B assay relative to control). Details: SK-MEL-5, 48 h, read-out: Activity.
Format: functional
O=C(Nc1cccc(-n2cc(-c3ccncc3)c(-c3cc(O)cc(Cl)c3)n2)c1)c1ccc(N2CCOCC2)c(C(F)(F)F)c1 was tested, and the growth at 10 µM was 32.2%.

What follows are compounds tested on U-251 (assay: Growth inhibition of human U251 cells assessed as cell growth at 10 uM incubated for 48 hrs by sulforhodamine B assay relative to control). Details: U-251, 48 h, read-out: Activity.
Format: functional
Compound O=C(Nc1cccc(-n2cc(-c3ccncc3)c(-c3cc(O)cc(Cl)c3)n2)c1)c1ccc(N2CCOCC2)c(C(F)(F)F)c1 has a growth at 10 µM of -9.64%.

What follows are compounds tested on OVCAR-4 (assay: Growth inhibition of human OVCAR4 cells assessed as cell growth at 10 uM incubated for 48 hrs by sulforhodamine B assay relative to control). Details: OVCAR-4, 48 h, read-out: Activity.
Format: functional
In the case of O=C(Nc1cccc(-n2cc(-c3ccncc3)c(-c3cc(O)cc(Cl)c3)n2)c1)c1ccc(N2CCOCC2)c(C(F)(F)F)c1, the growth at 10 µM is reported as 77.1%.

These compounds were tested on COLO 205 (assay: Growth inhibition of human COLO205 cells assessed as cell growth at 10 uM incubated for 48 hrs by sulforhodamine B assay relative to control). Details: COLO 205, 48 h, read-out: Activity.
Format: functional
O=C(Nc1cccc(-n2cc(-c3ccncc3)c(-c3cc(O)cc(Cl)c3)n2)c1)c1ccc(N2CCOCC2)c(C(F)(F)F)c1 was tested, and the growth at 10 µM was 80.5%.

The compounds below were run on T47D (assay: Growth inhibition of human T47D cells assessed as cell growth at 10 uM incubated for 48 hrs by sulforhodamine B assay relative to control). Details: read-out: Activity.
Format: functional
O=C(Nc1cccc(-n2cc(-c3ccncc3)c(-c3cc(O)cc(Cl)c3)n2)c1)c1ccc(N2CCOCC2)c(C(F)(F)F)c1 showed a growth at 10 µM of 29.3%.

These compounds were tested on SNB-75 (assay: Growth inhibition of human SNB75 cells assessed as cell growth at 10 uM incubated for 48 hrs by sulforhodamine B assay relative to control). Details: SNB-75, 48 h, read-out: Activity.
Format: functional
O=C(Nc1cccc(-n2cc(-c3ccncc3)c(-c3cc(O)cc(Cl)c3)n2)c1)c1ccc(N2CCOCC2)c(C(F)(F)F)c1 gave a growth at 10 µM of 23.1%.

Each compound was assayed on M14 (assay: Growth inhibition of human M14 cells assessed as cell growth at 10 uM incubated for 48 hrs by sulforhodamine B assay relative to control). Details: M14, 48 h, read-out: Activity.
Format: functional
O=C(Nc1cccc(-n2cc(-c3ccncc3)c(-c3cc(O)cc(Cl)c3)n2)c1)c1ccc(N2CCOCC2)c(C(F)(F)F)c1 showed a growth at 10 µM of -20.7%.

These compounds were tested on MDA-MB-231 (assay: Growth inhibition of human MDA-MB-231 cells assessed as cell growth at 10 uM incubated for 48 hrs by sulforhodamine B assay relative to control). Details: MDA-MB-231, 48 h, read-out: Activity.
Format: functional
Work on O=C(Nc1cccc(-n2cc(-c3ccncc3)c(-c3cc(O)cc(Cl)c3)n2)c1)c1ccc(N2CCOCC2)c(C(F)(F)F)c1 yielded a growth at 10 µM of -48%.

What follows are compounds tested on SF-295 (assay: Growth inhibition of human SF295 cells assessed as cell growth at 10 uM incubated for 48 hrs by sulforhodamine B assay relative to control). Details: SF-295, 48 h, read-out: Activity.
Format: functional
For O=C(Nc1cccc(-n2cc(-c3ccncc3)c(-c3cc(O)cc(Cl)c3)n2)c1)c1ccc(N2CCOCC2)c(C(F)(F)F)c1, the growth at 10 µM was -35.4%.

The compounds below were run on SF-539 (assay: Growth inhibition of human SF539 cells assessed as cell growth at 10 uM incubated for 48 hrs by sulforhodamine B assay relative to control). Details: SF-539, 48 h, read-out: Activity.
Format: functional
Work on O=C(Nc1cccc(-n2cc(-c3ccncc3)c(-c3cc(O)cc(Cl)c3)n2)c1)c1ccc(N2CCOCC2)c(C(F)(F)F)c1 yielded a growth at 10 µM of 2.4%.

Each compound was assayed on A549 (assay: Growth inhibition of human A549/ATCC cells assessed as cell growth at 10 uM incubated for 48 hrs by sulforhodamine B assay relative to control). Details: A549, 48 h, read-out: Activity.
Format: functional
For O=C(Nc1cccc(-n2cc(-c3ccncc3)c(-c3cc(O)cc(Cl)c3)n2)c1)c1ccc(N2CCOCC2)c(C(F)(F)F)c1, the growth at 10 µM was 9.62%.
